Assay results taken from patent US20260256753A1, “USE OF AN OREXIN 2 RECEPTOR AGONIST FOR IMPROVING RESPIRATORY FUNCTION DURING SLEEP” (TAKEDA PHARMACEUTICAL COMPANY LIMITED, priority 2023, published 2026).

Experiments:
Format in all cases: cell-based
hypoglossal motoneurons = assay: Electrophysiologic recording of hypoglossal motoneurons in rat medullary slices; settings: whole cell patch clamp, versus vehicle control, FIG. 3
Text: (§1) Neonatal rats (postnatal day 1-10) were decapitated and the neuraxis was isolated in a chamber filled with oxygenated artificial cerebrospinal fluid solution (ACSF, in mM: NaCl 125, KCl 2.5, MgCl2 1, CaCl2 2, NaHCO3 25, NaH2PO4 1.25, glucose 25, pH 7.4). The cerebellum was removed, and the brainstem was mounted in the vibratome (VT 1000S; Leica, Milan, Italy) chamber filled with oxygenated gluconate cutting solution (in mM: Kgluconate 130, KCl 15, EGTA 0.2, HEPES 20, glucose 25, kynurenic acid 2, pH 7.4). Transverse medullary slices containing the pre-Bötzinger complex and hypoglossal nucleus were cut (400-600 μm thick). The slices were transferred at room temperature for 1 min in an oxygenated mannitol cutting solution (in mM: D-mannitol 225, glucose 25, KCl 2.5, NaH2PO4 1.25, NaHCO3 26, CaCl2 0.8, MgCl2 8, kynurenic acid 2, pH 7.4). Slices were then transferred in ACSF solution at 30° C. for 30 min and at room temperature for 30 min. At least 30 min prior to the start of recording, each slice was transferred in the recording solution in which the concentration of K+ was raised to 9 mM and that of Mg2+ was decreased to 0.5 mM to ensure the production of long-term and stable rhythm. […] Signals were acquired using Clampex 10.6 software (Axon, Molecular Devices, CA, USA) at a sampling rate of 10-20 kHz and filtered at 2-10 kHz using an 8-pole Bessel filter built within the software and analyzed using Clampfit 10.6 software (pClamp 10.6; Axon, Molecular Devices). […] Bursts were then automatically detected, and burst frequency was measured.
(§2) To evaluate the effects of vehicle (0.1% DMSO) on neuronal activities, after 5 min of stabilization, the neuronal activities under basal condition was recorded for 2-12 min, followed by recording in the presence of vehicle (0.1% DMSO) for 30 min. […]

phrenic motoneurons = assay: Electrophysiologic recording of phrenic motoneurons in rat isolated brainstem-spinal cord preparations; settings: C3-5 ventral root, versus vehicle control, FIG. 2
Procedure: Neonatal (postnatal day 1-4) rats were decapitated, and the brainstem-spinal cord was dissected in a bath containing ACSF. The cerebellum and pons were ablated. At least 30 min prior to the start of recording, the tissue was transferred in the recording solution in which the concentration of K+ was raised to 5 mM and that of Mg2+ was decreased to 0.5 mM to ensure production of long-term and stable rhythm (modified ACSF, in mM: NaCl 125, MgCl2 0.5, KCl 5, CaCl2 1, NaHCO3 25, NaH2PO4 1.25, glucose 30, pH 7.4). The tissues were glued on coverslips and transferred to a recording chamber and continuously perfused at 27±2° C. with mACSF at a flow rate of 2.3±0.2 mL/min. Activity of phrenic motoneurons was measured in electrophysiological recordings from C3-5 ventral root, outputs of phrenic motoneurons (J. J. Greer, J. C. Smith, J. L. Feldman, Respiratory and locomotor patterns generated in the fetal rat brain stem-spinal cord in vitro, J Neurophysiol 67 (4) (1992) 996-9; J. C. Smith, J. J. Greer, G. S. Liu, J. L. Feldman, Neural mechanisms generating respiratory pattern in mammalian brain stem-spinal cord in vitro. I. Spatiotemporal patterns of motor and medullary neuron activity, J Neurophysiol 64 (4) (1990) 1149-69), using a glass suction electrode. […] The rectification and integration was used for quantification of the activities of phrenic motoneurons because the spontaneous bursts detected in voltage signals are consisting of multiple positive and negative voltages from baseline (T. Sugita, et al.). […] Bursts were then automatically detected, and burst frequency was measured.
To evaluate the effects of vehicle (0.1% DMSO) on neuronal activities, after 5 min of stabilization, the neuronal activities under basal condition were recorded for 2-20 min, followed by recording with vehicle (0.1% DMSO) for 30-40 min. […] As vehicle (0.1% DMSO) had no significant effects on burst frequency of phrenic neurons, potential of drugs was assessed under vehicle (0.1% DMSO). […]

[1] = test system: neurons in the pre-Bötzinger complex; assay: Electrophysiologic recording of neurons in the pre-Bötzinger complex in rat medullary slices; settings: whole cell patch clamp, versus vehicle (0.1% DMSO) control, FIG. 1
Text: as §1, §2

CC(C)(O)C(=O)N1CC(F)(F)[C@H](NS(C)(=O)=O)[C@@H]1Cc1cccc(-c2cc(F)cc(F)c2)c1F [Compound C, N-{(2S,3R)-4,4-difluoro-1-(2-hydroxy-2-methylpropanoyl)-2-[(2,3′,5′-trifluoro[1,1′-biphenyl]-3-yl)methyl]pyrrolidin-3-yl}methanesulfonamide]
increased burst frequency: burst frequency of hypoglossal motoneurons (hypoglossal motoneurons) | burst frequency of phrenic motoneurons (phrenic motoneurons) | burst frequency in neurons in the pre-Bötzinger complex [1]

COC(=O)N1CCC[C@H](NS(C)(=O)=O)[C@@H]1CO[C@H]1CC[C@@H](c2ccccc2)CC1 (relative stereo) [Compound A, methyl(2R,3S)-3-((methylsulfonyl)amino)-2-(((cis-4-phenylcyclohexyl)oxy)methyl) piperidine-1-carboxylate]
increased burst frequency: burst frequency of hypoglossal motoneurons (hypoglossal motoneurons) | burst frequency of phrenic motoneurons (phrenic motoneurons) | burst frequency in neurons in the pre-Bötzinger complex [1]
